This assay deals with human PCSK9 (Homo sapiens, UniProt Q8NBP7). In words: PCSK9 ligand binding TR-FRET assay (interference with binding of human PCSK9 to human LDLR). As to conditions: for Max % inhibition: PCSK9 FRET assay, efficacy (Amax), 100% = 1 uM unlabeled human PCSK9, 0% = DMSO; for IC50: TR-FRET, human PCSK9 Alexa Fluor 647 / human LDLR extracellular domain-Europium Kryptate, read-out: PCSK9 FRET Assay IC50. The gist of the method: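 Threefold compound dilutions were pre-incubated 30 min with PCSK9, after which 4 nM Europium Kryptate-tagged human LDLR ectodomain was added for a further 2 h.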
human PCSK9, sequence (Q8NBP7 153-692): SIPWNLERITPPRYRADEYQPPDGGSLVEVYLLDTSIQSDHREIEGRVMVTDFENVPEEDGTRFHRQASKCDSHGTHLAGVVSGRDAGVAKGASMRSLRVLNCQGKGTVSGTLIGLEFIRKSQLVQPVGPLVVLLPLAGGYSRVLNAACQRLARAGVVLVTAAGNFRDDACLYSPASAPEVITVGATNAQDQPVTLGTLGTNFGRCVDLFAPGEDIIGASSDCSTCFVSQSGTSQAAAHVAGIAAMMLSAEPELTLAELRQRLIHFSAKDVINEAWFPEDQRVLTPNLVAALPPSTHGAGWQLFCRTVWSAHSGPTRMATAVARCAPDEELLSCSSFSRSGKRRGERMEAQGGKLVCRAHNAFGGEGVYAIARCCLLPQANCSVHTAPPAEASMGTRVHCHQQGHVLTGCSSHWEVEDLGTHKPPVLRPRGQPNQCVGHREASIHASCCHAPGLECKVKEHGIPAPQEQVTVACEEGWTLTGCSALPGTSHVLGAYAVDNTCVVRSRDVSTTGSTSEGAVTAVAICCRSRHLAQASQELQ
human PCSK9, sequence (Q8NBP7 31-152 partner limits assumed): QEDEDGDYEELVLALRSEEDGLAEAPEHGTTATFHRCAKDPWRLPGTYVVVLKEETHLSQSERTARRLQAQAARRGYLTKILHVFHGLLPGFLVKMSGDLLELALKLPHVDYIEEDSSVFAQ

Take `COC[C@@H]1NC(=O)[C@H](CC(=O)OC(C)(C)C)N(Cc2ccc(Cl)cc2Oc2ccc(-c3cnc(CN(C)C)n3C)cc2)C(=O)C[C@@H](Cc2ccccc2)C(=O)N(C)[C@@H](C)CNC(=O)C[C@H](Cc2ccc(Cl)cc2)N(C)C1=O` [Compound 174, tert-butyl 2-((2S,5S,8S,13S,16R)-16-benzyl-1-(4-chloro-2-(4-(2-((dimethylamino)methyl)-1-methyl-1H-imidazol-5-yl)phenoxy)benzyl)-8-(4-chlorobenzyl)-5-(methoxymethyl)-7,13,14-trimethyl-3,6,10,15,18-pentaoxo-1,4,7,11,14-pentaazacyclooctadecan-2-yl)acetate]: the Max % inhibition came to 102.02% and the IC50 was determined as 11.4 nM.
On to `COC[C@@H]1NC(=O)[C@H](CCC(=O)N2CCOCC2)N(Cc2ccc(Cl)cc2Oc2ccc(-c3cnc(CN(C)C)n3C)cc2)C(=O)C[C@@H](Cc2ccccc2)C(=O)N(C)[C@@H](C)CNC(=O)C[C@H](Cc2ccc(Cl)cc2)N(C)C1=O` [Compound 175, (2S,5S,8S,13S,16R)-16-benzyl-1-(4-chloro-2-(4-(2-((dimethylamino)methyl)-1-methyl-1H-imidazol-5-yl)phenoxy)benzyl)-8-(4-chlorobenzyl)-5-(methoxymethyl)-7,13,14-trimethyl-2-(3-morpholino-3-oxopropyl)-1,4,7,11,14-pentaazacyclooctadecane-3,6,10,15,18-pentaone], for which the Max % inhibition was determined as 102.55% and the IC50 stood at 5.8 nM.
As for `COC[C@@H]1NC(=O)[C@H](C)N(Cc2ccc(Cl)cc2Oc2ccc(-c3cnc4c(c3)CN(C(=O)[C@H]3CCNC3)CC4)cc2)C(=O)C[C@@H](Cc2ccccc2)C(=O)N(C)[C@@H](C)CNC(=O)C[C@H](Cc2ccc(Cl)cc2)N(C)C1=O` [Compound 176, (2S,5S,8S,13S,16R)-16-benzyl-1-(4-chloro-2-(4-(6-((S)-pyrrolidine-3-carbonyl)-5,6,7,8-tetrahydro-1,6-naphthyridin-3-yl)phenoxy)benzyl)-8-(4-chlorobenzyl)-5-(methoxymethyl)-2,7,13,14-tetramethyl-1,4,7,11,14-pentaazacyclooctadecane-3,6,10,15,18-pentaone], the Max % inhibition stood at 70.99% and the concentration for half-maximal inhibition (IC50) worked out at 4.3 nM.
For `COC[C@@H]1NC(=O)[C@H](C)N(Cc2ccc(Cl)cc2Oc2ccc(-c3cnc(CN(C)C)n3C)cc2)C(=O)C[C@@H](Cc2ccccc2)C(=O)N(C)[C@@H](C(=O)O)CNC(=O)C[C@H](Cc2ccc(Cl)cc2)N(C)C1=O` [Compound 177, (2S,5S,8S,13R,16R)-16-benzyl-1-(4-chloro-2-(4-(2-((dimethylamino)methyl)-1-methyl-1H-imidazol-5-yl)phenoxy)benzyl)-8-(4-chlorobenzyl)-5-(methoxymethyl)-2,7,14-trimethyl-3,6,10,15,18-pentaoxo-1,4,7,11,14-pentaazacyclooctadecane-13-carboxylic acid], in that order: 107.53% and 9.8 nM.
`COC[C@@H]1NC(=O)[C@H](C)N(Cc2ccc(OC(F)F)cc2Oc2ccc(-c3cnc(CN(C)C)n3C)cc2)C(=O)C[C@@H](Cc2ccccc2)C(=O)N(C)[C@@H](C)CNC(=O)C[C@H](Cc2ccc(Cl)cc2)N(C)C1=O` [Compound 179, (2S,5S,8S,13S,16R)-16-benzyl-8-(4-chlorobenzyl)-1-(4-(difluoromethoxy)-2-(4-(2-((dimethylamino)methyl)-1-methyl-1H-imidazol-5-yl)phenoxy)benzyl)-5-(methoxymethyl)-2,7,13,14-tetramethyl-1,4,7,11,14-pentaazacyclooctadecane-3,6,10,15,18-pentaone]: the Max % inhibition was determined as 103.76% and the IC50 is 0.6 nM.
As for `COC[C@@H]1NC(=O)[C@H](C)N(Cc2ccc(Cl)cc2Oc2ccc(-c3cnc(CN(C)C)n3C)cc2)C(=O)C[C@@H](Cc2ccc(F)c[n+]2[O-])C(=O)N(C)[C@@H](C)CNC(=O)C[C@H](Cc2ccc(Cl)cc2)N(C)C1=O` [Compound 180, 2-(((2S,5S,8S,13S,16R)-1-(4-chloro-2-(4-(2-((dimethylamino)methyl)-1-methyl-1H-imidazol-5-yl)phenoxy)benzyl)-8-(4-chlorobenzyl)-5-(methoxymethyl)-2,7,13,14-tetramethyl-3,6,10,15,18-pentaoxo-1,4,7,11,14-pentaazacyclooctadecan-16-yl)methyl)-5-fluoropyridine 1-oxide], the Max % inhibition was determined as 102.27% and the IC50 worked out at 3.1 nM.
For `CCc1ncc(-c2ccc(Oc3cc(Cl)ccc3CN3C(=O)C[C@@H](Cc4ccccc4)C(=O)N(C)[C@@H](C)CNC(=O)C[C@H](Cc4ccc(Cl)cc4)N(C)C(=O)[C@H](COC)NC(=O)[C@@H]3C)cc2)n1C` [Compound 181, (2S,5S,8S,13S,16R)-16-benzyl-1-(4-chloro-2-(4-(2-ethyl-1-methyl-1H-imidazol-5-yl)phenoxy)benzyl)-8-(4-chlorobenzyl)-5-(methoxymethyl)-2,7,13,14-tetramethyl-1,4,7,11,14-pentaazacyclooctadecane-3,6,10,15,18-pentaone], in that order: 54.93% and 10.3 nM.
For `COC[C@@H]1NC(=O)[C@H](CCCNC(=O)OC(C)(C)C)N(Cc2ccc(Cl)cc2Oc2ccc(-c3cnc(CN(C)C)n3C)cc2)C(=O)C[C@@H](Cc2ccccc2)C(=O)N(C)[C@H]2CCCC[C@@H]2NC(=O)C[C@H](Cc2ccc(Cl)cc2)N(C)C1=O` [Compound 182, tert-butyl (3-((4S,7S,10S,14R,16aS,20aS)-14-benzyl-11-(4-chloro-2-(4-(2-((dimethylamino)methyl)-1-methyl-1H-imidazol-5-yl)phenoxy)benzyl)-4-(4-chlorobenzyl)-7-(methoxymethyl)-5,16-dimethyl-2,6,9,12,15-pentaoxodocosahydrobenzo[l][1,4,7,11,14]pentaazacyclooctadecin-10-yl)propyl)carbamate], in that order: 99.86% and 1.2 nM.
For `COC[C@@H]1NC(=O)[C@H](C)N(Cc2ccc(Cl)cc2Oc2ccc(-c3cnc(CN(C)C)n3C)cc2)C(=O)C[C@@H](CC2CCCCC2)C(=O)N(C)[C@@H](C)CNC(=O)C[C@H](Cc2ccc(Cl)cc2)N(C)C1=O` [Compound 183, (2S,5S,8S,13S,16R)-1-(4-chloro-2-(4-(2-((dimethylamino)methyl)-1-methyl-1H-imidazol-5-yl)phenoxy)benzyl)-8-(4-chlorobenzyl)-16-(cyclohexylmethyl)-5-(methoxymethyl)-2,7,13,14-tetramethyl-1,4,7,11,14-pentaazacyclooctadecane-3,6,10,15,18-pentaone], in that order: 81.31% and 11.2 nM.
Take `COC[C@@H]1NC(=O)C(C)N(Cc2ccc(Cl)cc2Oc2ccc(-c3cnc(CN(C)C)n3C)cc2)C(=O)C[C@@H](C)C(=O)N(C)[C@@H](CC(C)C)CNC(=O)C[C@H](Cc2ccc(Cl)cc2)N(C)C1=O` (stereo partly drawn) [Compound 184, (5S,8S,13S,16R)-1-(4-chloro-2-(4-(2-((dimethylamino)methyl)-1-methyl-1H-imidazol-5-yl)phenoxy)benzyl)-8-(4-chlorobenzyl)-13-isobutyl-5-(methoxymethyl)-2,7,14,16-tetramethyl-1,4,7,11,14-pentaazacyclooctadecane-3,6,10,15,18-pentaone]: the Max % inhibition is given as 54.06% and the IC50 came to 9.4 nM.
For the molecule `COC[C@@H]1NC(=O)[C@H](C)N(Cc2ccc(Cl)cc2Oc2ccc(-c3cnc(CN(C)C)n3C)cc2)C(=O)C[C@@H](Cc2ccccc2)C(=O)N(C)[C@@H](C)[C@H](C)NC(=O)C[C@H](Cc2ccc(Cl)cc2)N(C)C1=O` [Compound 186, (2S,5S,8S,12S,13S,16R)-16-benzyl-1-(4-chloro-2-(4-(2-((dimethylamino)methyl)-1-methyl-1H-imidazol-5-yl)phenoxy)benzyl)-8-(4-chlorobenzyl)-5-(methoxymethyl)-2,7,12,13,14-pentamethyl-1,4,7,11,14-pentaazacyclooctadecane-3,6,10,15,18-pentaone], the Max % inhibition was 103.39% and the IC50 was determined as 0.6 nM.
On to `COC[C@@H]1NC(=O)[C@H](C)N(Cc2ccc(Cl)cc2Oc2ccc(-c3cnc(CN(C)C)n3C)cc2)C(=O)C[C@@H](Cc2ccccc2)C(=O)N(C)[C@H]2CCOC[C@@H]2NC(=O)C[C@H](Cc2ccc(Cl)cc2)N(C)C1=O` [Compound 187, (4S,7S,10S,14R,16aS,20aR)-14-benzyl-11-(4-chloro-2-(4-(2-((dimethylamino)methyl)-1-methyl-1H-imidazol-5-yl)phenoxy)benzyl)-4-(4-chlorobenzyl)-7-(methoxymethyl)-5,10,16-trimethyltetradecahydro-1H-pyrano[3,4-l][1,4,7,11,14]pentaazacyclooctadecine-2,6,9,12,15(3H)-pentaone], for which the Max % inhibition is listed as 94.30% and the IC50 was found to be 1.3 nM.
Regarding `COC[C@@H]1NC(=O)[C@H](C)N(Cc2ccc(Cl)cc2Oc2ccc(-n3cnc(C(=O)NCCO)c3C)cc2)C(=O)C[C@@H](Cc2ccccc2)C(=O)N(C)[C@@H](C)CNC(=O)C[C@H](Cc2ccc(Cl)cc2)N(C)C1=O` [Compound 188, 1-(4-(2-(((2S,5S,8S,13S,16R)-16-benzyl-8-(4-chlorobenzyl)-5-(methoxymethyl)-2,7,13,14-tetramethyl-3,6,10,15,18-pentaoxo-1,4,7,11,14-pentaazacyclooctadecan-1-yl)methyl)-5-chlorophenoxy)phenyl)-N-(2-hydroxyethyl)-5-methyl-1H-imidazole-4-carboxamide], the Max % inhibition was found to be 75.17% and the IC50 is 16.2 nM.
Take `COC[C@@H]1NC(=O)[C@H](C)N(Cc2ccc(Cl)cc2Oc2ccc(-c3cnc(CN4CC5(COC5)C4)n3C)cc2)C(=O)C[C@@H](Cc2ccccc2)C(=O)N(C)[C@@H](C)CNC(=O)C[C@H](Cc2ccc(Cl)cc2)N(C)C1=O` [Compound 189, (2S,5S,8S,13S,16R)-1-(2-(4-(2-(2-oxa-6-azaspiro[3.3]heptan-6-ylmethyl)-1-methyl-1H-imidazol-5-yl)phenoxy)-4-chlorobenzyl)-16-benzyl-8-(4-chlorobenzyl)-5-(methoxymethyl)-2,7,13,14-tetramethyl-1,4,7,11,14-pentaazacyclooctadecane-3,6,10,15,18-pentaone]: the Max % inhibition is reported as 95.01% and the IC50 was 1.4 nM.

Values taken from patent US20230089867A1, “CYCLIC PENTAMER COMPOUNDS AS PROPROTEIN CONVERTASE SUBTILISIN/KEXIN TYPE 9 (PCSK9) INHIBITORS FOR THE TREATMENT OF METABOLIC DISORDER” (Novartis AG, priority 2018, published 2023).
